Tests used:
LCK = biological target: T1, LCK (Homo sapiens, UniProt P06239); assay: In vitro protein kinase assay (radioisotopic 33P, FlashPlate); format: biochemical; conditions: recombinant human kinase
T1 construct: made in house; host or cells: Sf9 insect cells (baculovirus)
Protocol: (§1) The effect of the thiazole derivatives was tested on recombinant, human protein kinases in in vitro protein kinase assays.
(§2) The protein kinases were expressed in Sf9 insect cells as human recombinant GST-fusion proteins or as His-tagged proteins by means of the baculovirus expression system.
(§3) The kinase activity was measured with a radioisotopic protein kinase assay by measuring the incorporation of ^33P-phosphate into proteins or peptide substrates. The assays were performed in FlashPlate™ microtiter scintillation plates and incorporation of ^33P-phosphate was determined with a microplate scintillation counter.

Aurora A = biological target: T2, Aurora A (Homo sapiens, UniProt O14965); assay: as above; format: biochemical; conditions: recombinant human kinase
T2 construct: made in house; host or cells: Sf9 insect cells (baculovirus)
T2 sequence (O14965 1-403): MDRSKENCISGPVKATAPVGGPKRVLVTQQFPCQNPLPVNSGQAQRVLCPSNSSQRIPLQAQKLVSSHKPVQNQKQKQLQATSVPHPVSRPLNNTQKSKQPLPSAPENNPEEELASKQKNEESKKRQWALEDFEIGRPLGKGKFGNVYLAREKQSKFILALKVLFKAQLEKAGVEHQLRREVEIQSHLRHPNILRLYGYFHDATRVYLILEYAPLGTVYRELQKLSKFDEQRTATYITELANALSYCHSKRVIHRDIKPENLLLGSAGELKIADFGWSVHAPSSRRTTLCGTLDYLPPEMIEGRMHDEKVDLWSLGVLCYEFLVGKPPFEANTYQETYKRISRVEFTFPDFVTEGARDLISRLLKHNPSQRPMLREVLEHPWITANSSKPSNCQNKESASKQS
Protocol: as §1, §2, §3

PDGF-Rα = biological target: T3, PDGF-Rα (Homo sapiens, UniProt P16234); assay: as above; format: biochemical; conditions: recombinant human kinase
T3 construct: made in house; host or cells: Sf9 insect cells (baculovirus)
Protocol: as §1, §2, §3

VEGF-R1 = biological target: T4, VEGF-R1 (Homo sapiens, UniProt P17948); assay: as above; format: biochemical; conditions: recombinant human kinase
T4 construct: made in house; host or cells: Sf9 insect cells (baculovirus)
Protocol: as §1, §2, §3

EGF-R = biological target: T5, EGF-R (Homo sapiens, UniProt P00533); assay: as above; format: biochemical; conditions: recombinant human kinase
T5 construct: made in house; host or cells: Sf9 insect cells (baculovirus)
T5 sequence (P00533 25-1210): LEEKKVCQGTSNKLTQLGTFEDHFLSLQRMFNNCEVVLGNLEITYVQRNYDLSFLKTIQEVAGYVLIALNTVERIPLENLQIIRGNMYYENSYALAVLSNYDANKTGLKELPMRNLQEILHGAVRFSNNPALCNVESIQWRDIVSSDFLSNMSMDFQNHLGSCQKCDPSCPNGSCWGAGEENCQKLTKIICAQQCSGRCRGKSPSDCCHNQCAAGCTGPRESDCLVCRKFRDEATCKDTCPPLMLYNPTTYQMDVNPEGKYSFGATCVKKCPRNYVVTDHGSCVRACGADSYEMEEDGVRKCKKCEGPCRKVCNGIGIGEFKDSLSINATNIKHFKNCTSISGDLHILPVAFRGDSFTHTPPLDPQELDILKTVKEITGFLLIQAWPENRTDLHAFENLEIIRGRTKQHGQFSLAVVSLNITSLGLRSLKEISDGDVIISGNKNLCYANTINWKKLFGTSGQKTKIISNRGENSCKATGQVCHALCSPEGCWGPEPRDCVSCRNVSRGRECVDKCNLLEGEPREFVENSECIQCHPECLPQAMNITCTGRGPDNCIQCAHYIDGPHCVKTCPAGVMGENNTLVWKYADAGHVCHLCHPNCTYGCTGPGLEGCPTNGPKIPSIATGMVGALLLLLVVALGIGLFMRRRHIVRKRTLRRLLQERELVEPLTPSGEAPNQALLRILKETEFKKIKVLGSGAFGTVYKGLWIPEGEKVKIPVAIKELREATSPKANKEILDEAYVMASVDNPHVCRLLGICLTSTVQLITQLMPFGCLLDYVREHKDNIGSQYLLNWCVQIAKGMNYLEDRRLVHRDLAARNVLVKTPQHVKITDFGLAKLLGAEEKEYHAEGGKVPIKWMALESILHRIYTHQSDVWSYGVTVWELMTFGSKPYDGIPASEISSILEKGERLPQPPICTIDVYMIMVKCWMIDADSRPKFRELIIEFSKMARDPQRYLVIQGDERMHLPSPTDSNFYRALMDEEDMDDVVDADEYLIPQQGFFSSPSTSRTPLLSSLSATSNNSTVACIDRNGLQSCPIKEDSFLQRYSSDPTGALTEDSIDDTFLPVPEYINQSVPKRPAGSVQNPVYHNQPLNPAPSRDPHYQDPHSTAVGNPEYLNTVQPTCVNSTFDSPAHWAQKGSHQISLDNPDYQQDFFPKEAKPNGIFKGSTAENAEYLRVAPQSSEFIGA
Protocol: as §1, §2, §3

VEGF-R3 = biological target: T6, VEGF-R3 (Homo sapiens, UniProt P35916); assay: as above; format: biochemical; conditions: recombinant human kinase
T6 construct: made in house; host or cells: Sf9 insect cells (baculovirus)
T6 sequence (P35916 25-1363): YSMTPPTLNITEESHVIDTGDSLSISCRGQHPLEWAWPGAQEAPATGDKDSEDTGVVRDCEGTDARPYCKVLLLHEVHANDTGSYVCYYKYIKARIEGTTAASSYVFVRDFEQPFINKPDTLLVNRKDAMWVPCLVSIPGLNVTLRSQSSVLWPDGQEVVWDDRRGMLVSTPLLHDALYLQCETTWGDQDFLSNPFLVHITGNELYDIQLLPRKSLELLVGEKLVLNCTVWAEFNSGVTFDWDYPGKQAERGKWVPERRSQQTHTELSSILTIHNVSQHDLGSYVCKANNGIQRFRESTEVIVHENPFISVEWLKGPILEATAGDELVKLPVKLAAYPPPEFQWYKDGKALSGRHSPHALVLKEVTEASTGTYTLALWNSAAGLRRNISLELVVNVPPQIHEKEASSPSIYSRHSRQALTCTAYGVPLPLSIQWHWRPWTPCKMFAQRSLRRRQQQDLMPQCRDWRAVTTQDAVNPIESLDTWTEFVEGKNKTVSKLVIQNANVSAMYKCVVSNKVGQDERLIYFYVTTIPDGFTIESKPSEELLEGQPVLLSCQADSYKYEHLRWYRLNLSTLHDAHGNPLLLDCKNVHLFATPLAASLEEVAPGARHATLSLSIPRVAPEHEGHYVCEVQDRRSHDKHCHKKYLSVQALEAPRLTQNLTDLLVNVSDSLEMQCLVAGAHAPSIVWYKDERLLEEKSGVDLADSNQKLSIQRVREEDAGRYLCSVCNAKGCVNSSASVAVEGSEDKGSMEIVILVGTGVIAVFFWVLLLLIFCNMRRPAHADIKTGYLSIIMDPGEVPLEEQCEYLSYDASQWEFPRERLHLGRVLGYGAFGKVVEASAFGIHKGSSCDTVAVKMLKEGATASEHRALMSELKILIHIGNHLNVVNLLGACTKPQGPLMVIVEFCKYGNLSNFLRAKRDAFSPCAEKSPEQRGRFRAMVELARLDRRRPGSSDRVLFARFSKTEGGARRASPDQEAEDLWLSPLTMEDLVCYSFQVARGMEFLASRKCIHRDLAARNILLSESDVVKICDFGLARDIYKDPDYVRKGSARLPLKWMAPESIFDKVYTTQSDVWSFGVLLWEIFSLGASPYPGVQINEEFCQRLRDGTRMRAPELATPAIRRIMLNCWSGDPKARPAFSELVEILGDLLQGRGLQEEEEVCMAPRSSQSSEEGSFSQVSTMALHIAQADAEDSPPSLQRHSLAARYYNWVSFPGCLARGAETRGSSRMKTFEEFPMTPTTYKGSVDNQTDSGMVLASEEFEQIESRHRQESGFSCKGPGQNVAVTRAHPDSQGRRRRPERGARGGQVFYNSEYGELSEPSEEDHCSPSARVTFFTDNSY
Protocol: as §1, §2, §3

TIE2 = biological target: T7, TIE2 (Homo sapiens, UniProt Q02763); assay: as above; format: biochemical; conditions: recombinant human kinase
T7 construct: made in house; host or cells: Sf9 insect cells (baculovirus)
T7 sequence (Q02763 23-1124): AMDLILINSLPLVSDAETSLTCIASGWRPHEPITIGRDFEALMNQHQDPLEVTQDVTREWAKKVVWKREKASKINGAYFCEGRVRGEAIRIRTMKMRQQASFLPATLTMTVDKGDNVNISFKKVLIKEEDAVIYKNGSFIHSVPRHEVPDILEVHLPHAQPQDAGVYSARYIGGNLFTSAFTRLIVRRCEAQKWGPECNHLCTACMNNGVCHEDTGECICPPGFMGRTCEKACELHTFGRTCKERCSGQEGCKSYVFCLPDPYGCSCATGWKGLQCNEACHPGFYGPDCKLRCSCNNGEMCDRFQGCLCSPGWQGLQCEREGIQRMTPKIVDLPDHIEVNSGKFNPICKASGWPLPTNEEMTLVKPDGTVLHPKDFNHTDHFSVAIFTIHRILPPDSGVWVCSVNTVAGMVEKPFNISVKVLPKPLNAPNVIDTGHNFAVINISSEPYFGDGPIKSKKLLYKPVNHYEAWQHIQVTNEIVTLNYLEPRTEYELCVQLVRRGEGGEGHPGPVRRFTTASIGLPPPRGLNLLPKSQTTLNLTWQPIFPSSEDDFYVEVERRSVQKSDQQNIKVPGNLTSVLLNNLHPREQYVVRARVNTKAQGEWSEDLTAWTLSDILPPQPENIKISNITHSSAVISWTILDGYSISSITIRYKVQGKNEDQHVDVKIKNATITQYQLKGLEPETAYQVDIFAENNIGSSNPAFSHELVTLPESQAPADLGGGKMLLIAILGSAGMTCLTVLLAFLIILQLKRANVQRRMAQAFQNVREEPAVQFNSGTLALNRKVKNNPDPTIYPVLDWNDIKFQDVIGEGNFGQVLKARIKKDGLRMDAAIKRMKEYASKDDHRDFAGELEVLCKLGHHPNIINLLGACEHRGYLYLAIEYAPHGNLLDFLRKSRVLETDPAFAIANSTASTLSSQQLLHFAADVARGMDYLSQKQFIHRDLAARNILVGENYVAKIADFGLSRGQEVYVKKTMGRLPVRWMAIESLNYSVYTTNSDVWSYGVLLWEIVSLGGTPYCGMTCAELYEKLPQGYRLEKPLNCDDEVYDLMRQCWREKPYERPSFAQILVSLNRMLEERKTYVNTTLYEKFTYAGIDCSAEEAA
Protocol: as §1, §2, §3

FLT3 = biological target: T8, FLT3 (Homo sapiens, UniProt P36888); assay: as above; format: biochemical; conditions: recombinant human kinase
T8 construct: made in house; host or cells: Sf9 insect cells (baculovirus)
T8 sequence (P36888 27-993): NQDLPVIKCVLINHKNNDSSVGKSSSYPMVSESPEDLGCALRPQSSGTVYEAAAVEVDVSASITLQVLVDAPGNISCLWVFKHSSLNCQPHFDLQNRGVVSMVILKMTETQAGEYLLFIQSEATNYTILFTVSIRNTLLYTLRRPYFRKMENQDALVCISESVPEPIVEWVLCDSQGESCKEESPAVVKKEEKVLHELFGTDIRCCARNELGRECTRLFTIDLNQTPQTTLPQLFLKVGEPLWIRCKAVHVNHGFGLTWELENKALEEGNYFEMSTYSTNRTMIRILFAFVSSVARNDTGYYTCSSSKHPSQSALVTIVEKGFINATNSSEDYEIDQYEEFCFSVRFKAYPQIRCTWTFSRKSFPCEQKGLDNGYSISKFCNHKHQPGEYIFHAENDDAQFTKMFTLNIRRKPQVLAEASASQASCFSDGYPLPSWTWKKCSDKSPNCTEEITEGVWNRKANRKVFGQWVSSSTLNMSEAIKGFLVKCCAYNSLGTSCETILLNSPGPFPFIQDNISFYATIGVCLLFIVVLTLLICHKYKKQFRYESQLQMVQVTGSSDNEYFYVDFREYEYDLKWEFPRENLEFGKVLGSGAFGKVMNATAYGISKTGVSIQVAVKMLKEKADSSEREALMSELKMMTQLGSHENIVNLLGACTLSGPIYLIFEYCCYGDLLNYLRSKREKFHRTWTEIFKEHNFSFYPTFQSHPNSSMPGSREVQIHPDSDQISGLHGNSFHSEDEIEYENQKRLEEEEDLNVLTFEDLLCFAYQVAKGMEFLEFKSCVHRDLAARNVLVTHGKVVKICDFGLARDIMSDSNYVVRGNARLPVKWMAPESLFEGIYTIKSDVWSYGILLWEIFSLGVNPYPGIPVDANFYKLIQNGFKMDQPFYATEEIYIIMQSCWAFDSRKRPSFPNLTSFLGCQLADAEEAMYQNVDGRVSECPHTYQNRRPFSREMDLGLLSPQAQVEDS
Protocol: as §1, §2, §3

IRAK4 = biological target: T9, IRAK4 (Homo sapiens, UniProt Q9NWZ3); assay: as above; format: biochemical; conditions: recombinant human kinase
T9 construct: made in house; host or cells: Sf9 insect cells (baculovirus)
T9 sequence (Q9NWZ3 1-460): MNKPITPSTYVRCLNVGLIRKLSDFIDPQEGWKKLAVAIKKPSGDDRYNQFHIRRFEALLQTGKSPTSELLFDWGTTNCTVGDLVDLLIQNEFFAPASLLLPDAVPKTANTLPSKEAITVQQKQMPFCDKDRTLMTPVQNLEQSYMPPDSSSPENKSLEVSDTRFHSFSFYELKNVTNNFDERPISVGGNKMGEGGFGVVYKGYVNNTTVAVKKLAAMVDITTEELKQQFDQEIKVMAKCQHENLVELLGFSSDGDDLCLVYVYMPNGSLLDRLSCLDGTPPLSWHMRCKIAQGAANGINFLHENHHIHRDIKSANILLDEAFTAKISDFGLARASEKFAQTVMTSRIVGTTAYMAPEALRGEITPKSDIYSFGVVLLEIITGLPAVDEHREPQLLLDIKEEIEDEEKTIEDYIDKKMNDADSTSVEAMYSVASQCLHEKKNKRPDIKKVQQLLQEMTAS
Protocol: as §1, §2, §3

RET = biological target: T10, RET (Homo sapiens, UniProt P07949); assay: as above; format: biochemical; conditions: recombinant human kinase
T10 construct: made in house; host or cells: Sf9 insect cells (baculovirus)
Protocol: as §1, §2, §3

KIT = biological target: T11, KIT (Homo sapiens, UniProt P10721); assay: as above; format: biochemical; conditions: recombinant human kinase
T11 construct: made in house; host or cells: Sf9 insect cells (baculovirus)
Protocol: as §1, §2, §3

TRK-A = biological target: T12, TRK-A (Homo sapiens, UniProt P04629); assay: as above; format: biochemical; conditions: recombinant human kinase
T12 construct: made in house; host or cells: Sf9 insect cells (baculovirus)
Protocol: as §1, §2, §3

PDGF-Rβ [1] = biological target: T13, PDGF-Rβ (Homo sapiens, UniProt P09619); assay: as above; format: biochemical; design: made in house; host or cells: Sf9 insect cells (baculovirus); conditions: recombinant human kinase
Protocol: as §1, §2, §3
Target sequence in this assay (P09619 33-1106): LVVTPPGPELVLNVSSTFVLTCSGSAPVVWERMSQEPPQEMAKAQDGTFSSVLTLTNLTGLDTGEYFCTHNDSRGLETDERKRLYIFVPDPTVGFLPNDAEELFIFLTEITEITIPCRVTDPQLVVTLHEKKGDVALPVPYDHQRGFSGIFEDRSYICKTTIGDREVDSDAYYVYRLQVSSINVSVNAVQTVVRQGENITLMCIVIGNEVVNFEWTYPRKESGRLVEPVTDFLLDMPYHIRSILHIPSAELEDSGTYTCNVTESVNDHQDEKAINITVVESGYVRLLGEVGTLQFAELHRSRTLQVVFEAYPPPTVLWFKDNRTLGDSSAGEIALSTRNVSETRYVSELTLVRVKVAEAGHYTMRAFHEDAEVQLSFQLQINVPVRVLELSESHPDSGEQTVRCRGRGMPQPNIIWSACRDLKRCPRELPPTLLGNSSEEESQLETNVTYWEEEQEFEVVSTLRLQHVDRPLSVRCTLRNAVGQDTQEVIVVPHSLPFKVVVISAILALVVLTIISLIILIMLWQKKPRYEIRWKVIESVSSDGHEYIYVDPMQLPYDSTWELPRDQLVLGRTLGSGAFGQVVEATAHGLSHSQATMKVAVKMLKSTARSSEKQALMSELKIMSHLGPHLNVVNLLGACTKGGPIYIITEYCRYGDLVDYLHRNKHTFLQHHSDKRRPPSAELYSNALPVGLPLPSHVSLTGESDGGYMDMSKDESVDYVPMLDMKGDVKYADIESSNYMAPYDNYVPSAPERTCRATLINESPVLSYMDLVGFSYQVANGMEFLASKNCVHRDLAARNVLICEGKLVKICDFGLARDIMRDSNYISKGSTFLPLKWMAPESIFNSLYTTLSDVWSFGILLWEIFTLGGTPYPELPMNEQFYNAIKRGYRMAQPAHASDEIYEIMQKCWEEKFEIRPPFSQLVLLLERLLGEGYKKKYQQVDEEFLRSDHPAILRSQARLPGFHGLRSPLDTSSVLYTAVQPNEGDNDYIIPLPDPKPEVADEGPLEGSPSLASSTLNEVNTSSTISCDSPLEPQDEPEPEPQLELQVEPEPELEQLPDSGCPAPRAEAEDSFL

VEGF-R2 [2] = biological target: T14, VEGF-R2 (Homo sapiens, UniProt P35968); assay: as above; format: biochemical; design: made in house; host or cells: Sf9 insect cells (baculovirus); conditions: recombinant human kinase
Protocol: as §1, §2, §3

Aurora B [3] = biological target: T15, Aurora B (Homo sapiens, UniProt Q96GD4); assay: as above; format: biochemical; design: made in house; host or cells: Sf9 insect cells (baculovirus); conditions: recombinant human kinase
T15 sequence (Q96GD4 whole entry): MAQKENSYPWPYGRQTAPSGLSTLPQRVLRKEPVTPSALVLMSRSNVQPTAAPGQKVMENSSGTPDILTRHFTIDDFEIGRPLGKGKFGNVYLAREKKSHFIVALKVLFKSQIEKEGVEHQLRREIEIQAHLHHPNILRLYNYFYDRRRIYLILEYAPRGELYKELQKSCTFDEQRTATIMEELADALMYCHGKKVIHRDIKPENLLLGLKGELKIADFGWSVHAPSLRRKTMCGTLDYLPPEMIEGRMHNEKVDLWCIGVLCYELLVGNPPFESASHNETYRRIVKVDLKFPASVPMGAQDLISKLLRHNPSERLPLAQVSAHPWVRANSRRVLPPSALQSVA
Protocol: as §1, §2, §3

Aurora B [4] = biological target: T15, Aurora B; assay: Cellular Aurora-B Kinase Assay (endoreduplication of genomic DNA, PI/FACS); format: cell-based; design: endogenous in cells; host or cells: HT29 colon carcinoma cells; conditions: HT29 colon-carcinoma cells, 3 days treatment, EndoR-population
Protocol: The effect of thiazole derivatives was tested in a cellular Aurora-B assay by measuring the effect of the test compounds on the endoreduplication (EndoR) of genomic DNA. Endoreduplication is detectable in cells as DNA-content higher then 4 n. Propidium Iodine (PI) was used to quantify the DNA content using a fluorescence activated cell sorter (FACS).
In the experiment, HT29 colon-carcinoma cells were treated with test compounds at different concentrations for 3 days. On day 5 cells were harvested and fixed in methanol. On day 6 cells were rehydrated and incubated with RNAse A and PI. Incorporated PI was detected by FACS measuring fluorescence emission at 650 nm upon excitation at 488 nm. For each compound concentration the percentage of EndoR-population as compared to the whole cell population was determined. For estimation of IC50 values of Aurora-B inhibition the percentages of EndoR-populations were plotted versus compound concentrations.

PDGF-Rβ [5] = biological target: T13, PDGF-Rβ; assay: Cellular Receptor Tyrosine Kinase Assay (autophosphorylation, sandwich ELISA); format: cell-based; design: host or cells: unnamed cell line; conditions: ligand-induced receptor autophosphorylation in cells
Protocol: (§4) The effect of thiazole derivatives was tested by determining the inhibition of different receptor tyrosine kinases (RTKs) in various cell lines which expressed the following growth factor receptors: EGF-R, PDGF-R, TIE2, IGF-1R, EPHB4, and VEGF-R2. Receptor autophosphorylation was induced by specific ligands for each receptor. […] Test compounds were applied to cells prior to stimulation. Cells were lysed using a standard lysis buffer preserving the distinct phosphoprotein levels. RTK-phosphorylation was quantified via sandwich ELISA using receptor-specific capture antibodies and a phosphotyrosine antibody.
(§5) Sigmoidal inhibitor curves based on relative inhibition compared with phosphorylation levels under high control conditions were generated which allowed the determination of IC50 values for each test compound.
Target sequence in this assay (P09619 33-1106, species assumed): as the sequence (P09619 33-1106) above

VEGF-R2 [6] = biological target: T14, VEGF-R2; assay: as above; format: cell-based; design: host or cells: unnamed cell line; conditions: ligand-induced receptor autophosphorylation in cells
Protocol: as §4, §5

Compound	IC50 (LCK)	IC50 (Aurora A)	IC50 (PDGF-Rα)	IC50 (VEGF-R1)	IC50 (EGF-R)	IC50 (VEGF-R3)	IC50 (TIE2)	IC50 (FLT3)	IC50 (IRAK4)	IC50 (RET)	IC50 (KIT)	IC50 (TRK-A)	IC50 (PDGF-Rβ [1])	IC50 (VEGF-R2 [2])	IC50 (Aurora B [3])	IC50 (Aurora B [4])	IC50 (PDGF-Rβ [5])	IC50 (VEGF-R2 [6])
COc1cc2c(Nc3ncc(CCC(=O)Nc4ccc(F)cc4)s3)ncnc2cc1OCCCN1CCCC1 [Compound 9, N-(4-fluorophenyl)-3-(2-(6-methoxy-7-(3-(pyrrolidin-1-yl)propoxy)quinazolin-4-ylamino)thiazol-5-yl)propanamide]	2.3 µM	0.71 µM	1 µM	0.64 µM	10 µM	0.11 µM	0.43 µM	0.6 µM	2.2 µM	0.88 µM	0.11 µM	0.43 µM	1.1 µM	0.096 µM	0.47 µM	–	–	–
COc1cc2ncnc(Nc3ncc(CCC(=O)Nc4ccc(F)cc4)s3)c2cc1OC [Compound 8, 3-(2-(6,7-dimethoxyquinazolin-4-ylamino)thiazol-5-yl)-N-(4-fluorophenyl)propanamide]	–	6 µM	–	–	61 µM	1.1 µM	14 µM	5.4 µM	–	–	–	–	27 µM	0.96 µM	2.3 µM	–	–	–
COc1cc2c(Nc3ncc(CCC(=O)Nc4cccc(F)c4)s3)ncnc2cc1OCCCN1CCCC1 [Compound 5, N-(3-fluoro-phenyl)-3-{2-[6-methoxy-7-(3-pyrrolidin-1-yl-propoxy)-quinazolin-4-ylamino]-thiazol-5-yl}-propionamide]	–	0.4 µM	–	–	29 µM	0.074 µM	0.36 µM	0.38 µM	–	–	–	–	0.56 µM	0.065 µM	0.61 µM	–	–	–
COC(=O)CCc1cnc(Nc2ncnc3cc(OC)c(OC)cc23)s1 [Compound 3, 3-[2-(6,7-dimethoxy-quinazolin-4-ylamino)-thiazol-5-yl]-propionic acid methyl ester]	–	0.99 µM	–	–	4 µM	0.56 µM	3.4 µM	8.9 µM	–	–	–	–	11 µM	0.39 µM	2.4 µM	–	–	–
COc1cc2ncnc(Nc3ncc(CCC(=O)Nc4cccc(F)c4)s3)c2cc1OC [Compound 7, 3-(2-(6,7-dimethoxyquinazolin-4-ylamino)thiazol-5-yl)-N-(3-fluorophenyl)propanamide]	–	1.3 µM	–	–	43 µM	1.1 µM	21 µM	25 µM	–	–	–	–	41 µM	1.5 µM	2.9 µM	–	–	–

Stronger by IC50 (Aurora A), values ahead:

IC50 (LCK)	IC50 (Aurora A)	IC50 (PDGF-Rα)	IC50 (VEGF-R1)	IC50 (EGF-R)	IC50 (VEGF-R3)	IC50 (TIE2)	IC50 (FLT3)	IC50 (IRAK4)	IC50 (RET)	IC50 (KIT)	IC50 (TRK-A)	IC50 (PDGF-Rβ [1])	IC50 (VEGF-R2 [2])	IC50 (Aurora B [3])	IC50 (Aurora B [4])	IC50 (PDGF-Rβ [5])	IC50 (VEGF-R2 [6])	Compound
–	0.16 µM	–	–	20 µM	2.8 µM	1 µM	11 µM	–	–	–	–	15 µM	2 µM	0.62 µM	–	–	–	COc1cc2c(Nc3ncc(CCNC(=O)c4ccccc4)s3)ncnc2cc1OCCCN1CCCC1 [Compound 2, N-(2-{2-[6-methoxy-7-(3-pyrrolidin-1-yl-propoxy)-quinazolin-4-ylamino]-thiazol-5-yl}-ethyl)-benzamide]
–	0.1 µM	–	–	–	2.2 µM	0.9 µM	5.5 µM	–	–	–	–	11 µM	2.6 µM	0.36 µM	1.1 µM	1.1 µM	14 µM	COc1cc2c(Nc3ncc(CCNC(=O)c4cccc(F)c4)s3)ncnc2cc1OCCCN1CCCC1 [Compound 1, 3-fluoro-N-(2-{2-[6-methoxy-7-(3-pyrrolidin-1-yl-propoxy)-quinazolin-4-ylamino]-thiazol-5-yl}-ethyl)-benzamide]
